Data as given in patent publication US8901314B2, “Substituted pyrazoles as N-type calcium channel blockers” (Janssen Pharmaceutica NV, priority 2012, dated 2014).

How the values were obtained:
[1] = tested on: Cav2.2 (N-type calcium channel; α1B, α2δ and β3 subunits stably expressed in HEK293 cells); test: Automated electrophysiology assay (QPatch-HT patch clamp); format: cell-based; details: 0.1 μM; for QPatch % Inhibition, High Freq: high frequency stimulation (15th pulse of 5 Hz train); for QPatch % Inhibition, Low Freq: low frequency stimulation (1st pulse of train)
Outline: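 Whole-cell automated patch clamp of HEK293 cells stably expressing α1B, α2δ-1 and β3, with 10 mM Ba²⁺/TEA external solution and CsCl internal solution. From −80 mV, trains of 15 pulses to +20 mV at 5 Hz every 30 s. Pulse 1 and pulse 15 currents normalized to the no-compound control period, with CdCl2 used to zero the current.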

[2] = target: α1B (Cav2.2), β3 and α2δ subunits of the N-type calcium channel (stable HEK cell line) (Rattus norvegicus, UniProt Q02294); test: Calcium-dye indicator assay (FDSS, KCl depolarization); format: cell-based; details: calcium mobilization response to 50 mM KCl; six-point concentration-response
Outline: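 HEK cells stably co-expressing α1B, β3 and α2δ subunits, loaded with calcium dye, exposed to compound for 5 min before 50 mM KCl depolarization, 3 min further read on FDSS. Maximal fluorescence normalized to KCl maximum and buffer minimum; IC50 by sigmoidal nonlinear regression.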

SMILES	QPatch % Inhibition, High Freq [1] [%]	QPatch % Inhibition, Low Freq [1] [%]	IC50 [2] [nM]
COc1ccccc1-n1nc(C2CCOC(C)(C)C2)cc1-c1ccc(Cl)cc1 (stereo not drawn) [Compound 62, 5-(4-Chlorophenyl)-3-(2,2-dimethyltetrahydro-2H-pyran-4-yl)-1-(2-methoxyphenyl)-1H-pyrazole]	67	45	2
COc1ccccc1-n1nc([C@H]2C[C@@H](C)O[C@@H](C)C2)cc1-c1ccc(Cl)cc1 [Compound 63, 5-(4-Chlorophenyl)-3-[(2R,4r,6S)-2,6-dimethyltetrahydro-2H-pyran-4-yl]-1-(2-methoxyphenyl)-1H-pyrazole]	74.5	60	2.5
CC1(C)CC(c2cc(-c3ccc(Cl)cc3)n(-c3ccccc3[N+](=O)[O-])n2)CC(C)(C)O1 [Compound 65, 5-(4-Chlorophenyl)-1-(2-nitrophenyl)-3-(2,2,6,6-tetramethyltetrahydro-2H-pyran-4-yl)-1H-pyrazole]	50	44	7.8
CCNc1ccccc1-n1nc(C2CC(C)(C)OC(C)(C)C2)cc1-c1ccc(Cl)cc1 [Compound 66, 2-[5-(4-Chlorophenyl)-3-(2,2,6,6-tetramethyltetrahydro-2H-pyran-4-yl)-1H-pyrazol-1-yl]-N-ethylaniline]	25	7	9.4
CC1(C)CC(c2cc(-c3ccc(Cl)cc3)n(-c3ccccc3N)n2)CC(C)(C)O1 [Compound 68, 2-[5-(4-Chlorophenyl)-3-(2,2,6,6-tetramethyltetrahydro-2H-pyran-4-yl)-1H-pyrazol-1-yl]aniline]	14	−9	20
COc1ccccc1-n1nc(C2CC(C)(C)OC(C)(C)C2)c(Br)c1-c1ccc(Cl)cc1 [Compound 70, 4-Bromo-5-(4-chlorophenyl)-1-(2-methoxyphenyl)-3-(2,2,6,6-tetramethyltetrahydro-2H-pyran-4-yl)-1H-pyrazole]	25	24	24
COc1ccccc1-n1nc(C2CC(C)(C)OC(C)(C)C2)cc1-c1ccc(OCCN2CCOCC2)cc1 [Compound 72, 4-(2-{4-[1-(2-Methoxyphenyl)-3-(2,2,6,6-tetramethyltetrahydro-2H-pyran-4-yl)-1H-pyrazol-5-yl]phenoxy}ethyl)morpholine]	11	4	38
CCN(CC)c1ccccc1-n1nc(C2CC(C)(C)OC(C)(C)C2)cc1-c1ccc(Cl)cc1 [Compound 73, 2-[5-(4-Chlorophenyl)-3-(2,2,6,6-tetramethyltetrahydro-2H-pyran-4-yl)-1H-pyrazol-1-yl]-N,N-diethylaniline]	1	−18	50
COc1ccc(-n2nc(C3CCOC(C)(C)C3)cc2-c2ccc(Cl)cc2)c(C)c1 (stereo not drawn) [Compound 75, 5-(4-Chlorophenyl)-3-(2,2-dimethyltetrahydro-2H-pyran-4-yl)-1-(4-methoxy-2-methylphenyl)-1H-pyrazole]	67	45	80
COc1ccccc1-n1nc(C2=CC(C)(C)OC(C)(C)C2)cc1-c1ccc(Cl)cc1 [Compound 95, 5-(4-Chlorophenyl)-1-(2-methoxyphenyl)-3-(2,2,6,6-tetramethyl-3,6-dihydro-2H-pyran-4-yl)-1H-pyrazole]	26	14	3.4
COc1ccccc1-n1nc(C2CC(C)(C)OC2(C)C)cc1-c1ccc(Cl)cc1 (stereo not drawn) [Compound 98, 5-(4-Chlorophenyl)-1-(2-methoxyphenyl)-3-(2,2,5,5-tetramethyltetrahydrofuran-3-yl)-1H-pyrazole]	61	44.5	5.1
